Measured values from patent US6541463B1, “Inhibitors of type 5 and type 3 17β-hydroxysteroid dehydrogenase and methods for their use” (Endorecherche, Inc., priority 1998, dated 2003).
Like-named read-outs stand apart in the source and are kept apart here.

Assays:
[1] = system: progesterone receptor; assay: Progesterone receptor assay: inhibition of [3H]R5020 binding, uterine cytosol; design: species or system rat
Experimental: The manner in which the percentage of inhibition is determined is described in “Other Tests; E-Progesterone Receptor Assay”. Lower numbers are desirable.
[17α-methyl-^3H]-promegestone (R5020) (84 Ci/mmol) and the corresponding unlabeled compound were purchased from New England Nuclear (Lachine, Québec, Canada). All other chemicals were of analytical grade.
Stock solutions of the unlabeled steroids were kept at 4° C. in ethanol. The desired steroid solutions were then prepared by appropriate dilution in buffer B (10 mM Tris-HCl, 1.5 mM EDTA, 10 mM α-monothioglycerol, pH 7.4) containing 30% ethanol.
Female Sprague-Dawley rats weighing 200-300 g were obtained from Charles-River Inc. (St-Constant, Québec, Canada). The rats were gonadectomized under general anesthesia (Isoflurane) and killed by cervical dislocation 24 hours later. The uteri are rapidly removed, dissected free from adhering tissue and frozen on dry-ice. Tissues were kept at −80° C. until use.
All procedures were performed at 4° C. Tissues were pulverized frozen in dry ice with a Thermovac pulverizer. The samples were then homogenized in 10 vol (w/v) of buffer A (25 mM Tris-HCl, 1.5 mM EDTA, 10 mM α-monothioglycerol, 10% glycerol, 10 mM sodium molybdate, pH 7.4) using a Polytron PT-10 homogenizer (Brinkmann Instruments, Canada) at a setting of 5 for two periods of 10 sec, with intervals of 10 sec for cooling. The homogenate was then centrifuged at 105,000×g for 90 min. The supernatant was used immediately for assay.
Progesterone binding was measured using the dextran-coated charcoal adsorption technique. […] Each concentration was done in triplicate. Assay was ended with 300 μl of DCC (1% Norit A and 0.1% Dextran T-70 in Buffer B). After 10 min of incubation, tubes were centrifuged at 2,000×g for 10 min. and decanted in vials with 6 ml of BCS liquid scintillation (New England Nuclear, Dupont). The radioactivity was measured in a Beckman counter at a counting efficiency of 35%.

[2] = target: T1, androgen receptor (Rattus norvegicus, UniProt P15207); assay: Androgen receptor (AR) assay: inhibition of [3H]R1881 binding, prostate cytosol
T1 construct: from tissue; host or cells: ventral prostate cytosol of gonadectomized male Sprague-Dawley rats
T1 sequence (P15207 1-902): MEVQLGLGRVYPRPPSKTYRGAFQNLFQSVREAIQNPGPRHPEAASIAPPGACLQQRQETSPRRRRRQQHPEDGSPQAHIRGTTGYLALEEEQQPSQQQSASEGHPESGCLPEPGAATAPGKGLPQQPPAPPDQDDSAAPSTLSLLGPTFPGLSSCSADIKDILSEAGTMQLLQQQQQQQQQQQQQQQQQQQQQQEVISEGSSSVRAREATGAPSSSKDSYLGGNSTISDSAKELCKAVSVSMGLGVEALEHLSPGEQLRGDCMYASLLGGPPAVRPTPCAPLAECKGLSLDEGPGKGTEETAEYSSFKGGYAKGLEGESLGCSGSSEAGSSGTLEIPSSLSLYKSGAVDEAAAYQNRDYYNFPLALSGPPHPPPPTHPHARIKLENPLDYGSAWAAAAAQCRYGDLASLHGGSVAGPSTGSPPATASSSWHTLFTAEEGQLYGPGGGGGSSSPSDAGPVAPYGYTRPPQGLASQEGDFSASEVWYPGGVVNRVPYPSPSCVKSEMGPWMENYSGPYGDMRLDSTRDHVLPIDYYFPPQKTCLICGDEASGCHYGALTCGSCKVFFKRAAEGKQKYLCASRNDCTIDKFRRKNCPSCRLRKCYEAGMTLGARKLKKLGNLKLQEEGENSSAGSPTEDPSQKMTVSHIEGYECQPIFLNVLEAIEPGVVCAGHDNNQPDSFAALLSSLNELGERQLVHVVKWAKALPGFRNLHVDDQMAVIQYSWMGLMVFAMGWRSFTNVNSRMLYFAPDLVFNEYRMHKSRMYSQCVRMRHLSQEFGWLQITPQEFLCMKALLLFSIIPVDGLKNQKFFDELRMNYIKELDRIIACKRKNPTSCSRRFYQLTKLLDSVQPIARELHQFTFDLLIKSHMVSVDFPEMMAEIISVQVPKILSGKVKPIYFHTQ
Experimental: The manner in which the percentage of inhibition is determined is described in “Other Tests; D-Androgen Receptor (AR) Assays”. Lower numbers are desirable.
Male Sprague-Dawley rats (Crl: CD(SD)Br) weighing 200-300 g were obtained from Charles-River Inc. (St-Constant, Québec, Canada). The rats were gonadectomized under general anesthesia (Isoflurane) and killed by cervical dislocation 24 hours later. The ventral prostates were rapidly removed, dissected free from adhering tissue and frozen on dry-ice. Prostates were kept at −80° C. until assay.
All subsequent steps were performed at 0-4° C. Prostates were homogenized in 5 vol (wt/vol) of buffer A (25 mM Tris-HCl, 1.5 mM EDTA disodium salt, 10 mM α-monothioglycerol, 10% glycerol, and 10 mM sodium molybdate, pH 7.4), using a Polytron PT-10 homogenizer (Brinkman Instruments, Canada) at a setting of 5 for three periods of 10 sec, with intervals of 10 sec for cooling. The homogenate was then centrifuged at 105,000×g for 60 min in a Beckman L5-65 ultracentrifuge (Fullerton, Calif.).
Androgen binding was measured using the hydroxylapatite assay (HAP). In brief, the radioactive steroid [^3H]R1881 solubilized in ethanol was diluted into buffer A. Aliquots of prostate cytosol preparation (0.1 ml) were then incubated with 8 nM [^3H]R1881 (0.1 ml, ˜200,000 cpm) in the presence or absence of the indicated concentrations of unlabeled compounds (0.1 ml, prepared in buffer A containing 10% ethanol) for 16-18 h at 0-4° C. […] Unbound steroids were separated by incubation for 40 min at 0-4° C. with 0.3 ml HAP prepared in buffer P (50 mM, Tris-HCl, 10 mM KH2PO4, pH 7.4) as follows: 10 g HAP were washed with buffer P until the supernatant reached a pH of 7.4 and then following centrifugation and decantation of the supernatant, 37.5 ml of buffer P were added. After incubation with HAP and 10 minutes of centrifugation at 1,000×g, the pellet was washed 3 times with 1 ml buffer P. Thereafter, the radioactivity was extracted from the pellet by incubation at room temperature for 60 minutes with 1 ml EtOH. After centrifugation, the supernatant was decanted into a scintillation vial and the pellet was extracted again with ethanol.

| SMILES | % Inhibition Progesterone Receptor E^−6 ([1]; Table 4′, E^−6) | % Inhibition Progesterone Receptor E^−8 ([1]; Table 4′, E^−8) | inhibition at 1 µM ([2]; Table 4′, E^−6) | inhibition at 0.01 µM ([2]; Table 4′, E^−8) | further results |
| --- | --- | --- | --- | --- | --- |
| COCCOc1cc2c(cc1C(F)(F)F)[C@H]1CC[C@@]3(C)[C@@H](CC[C@@]34CCC(C)(C)C(=O)O4)[C@@H]1CC2 [EM-1438, 3-(2′-Methoxyethoxy)-2-trifluoromethyl-1,3,5(10)-estratrien-17(R)-spiro-2′-(5′,5′-dimethyl-6′-oxo)tetrahydropyran] | 0% | 0% | – | – | % Inhibition Androgen Receptor E^−6 ([2]; Table 4′, E^−6): 10%; % Inhibition Androgen Receptor E^−8 ([2]; Table 4′, E^−8): 0% |
| COCCOc1cc2c(cc1Cl)C1CCC3(C)C(CCC34CCC(C)(C)C(=O)O4)C1CC2 (centres unmarked) [EM-1371-CS] | 3% | 0% | 1% | 0% | – |
| CC(C)C[C@@H]1CC2C3C=CC4=CC(=O)CC[C@]4(C)C3CC[C@]2(C)C1=O (some centres unmarked) [EM-1273-CS] | – | – | – | – | % Inhibition Progesterone Receptor E^−6 ([1]; E^−6): 0%; % Inhibition Progesterone Receptor E^−8 ([1]; E^−8): 0%; inhibition at 1 µM ([2]; E^−6): 0%; inhibition at 0.01 µM ([2]; E^−8): 0% |
| CC1(C)CCC2(CCC3C4CCc5ccccc5C4CCC32C)OC1=O (centres unmarked) [CS-224] | 5% | 2% | 0% | 0% | – |
| CCCCN(C)C(=O)[C@@]1(OC(C)=O)CCC2C3C=C(C)C4=CC(=O)CC[C@]4(C)C3CC[C@@]21C (some centres unmarked) [EM-1165] | – | – | – | – | % Inhibition Progesterone Receptor ([1]; E^−6): 7%; % Inhibition Progesterone Receptor ([1]; E^−8): 0%; % Inhibition Androgen Receptor ([2]; E^−6): 1%; % Inhibition Androgen Receptor ([2]; E^−8): 0% |
| COCCOc1cc2c(cc1C(N)=O)C1CC[C@@]3(C)C(CC[C@@]34CCC(C)(C)C(=O)O4)C1CC2 (stereo partly drawn) [EM-1424, 2-Carbamoyl-3-(2″-methoxyethyloxy)-1,3,5(10)-estratrien 17(R)-spiro-2′-(5′,5′-dimethyl-6′-oxo)tetrahydropyran] | 0% | 1% | 2% | 2% | – |
| CCC(=O)O[C@]1(C(C)=O)CCC2C3C=C(C)C4=CC(=O)C[C@H](C)[C@]4(C)C3CC[C@@]21C (some centres unmarked) [CS-243] | – | – | – | – | % Inhibition Progesterone Receptor ([1]; E^−6): 27%; % Inhibition Progesterone Receptor ([1]; E^−8): 0%; % Inhibition Androgen Receptor ([2]; E^−6): 33%; % Inhibition Androgen Receptor ([2]; E^−8): 0% |
| CCCC(=O)O[C@]1(C)C(=O)CCC2C3C=C(C)C4=CC(=O)CC[C@]4(C)C3CC[C@@]21C (some centres unmarked) [EM-1078] | – | – | – | – | % Inhibition Progesterone Receptor E^−6 ([1]; E^−6): 53%; % Inhibition Progesterone Receptor E^−8 ([1]; E^−8): 0%; inhibition at 1 µM ([2]; read-out: % Inhibition Androgen Receptor E^−6): 83%; inhibition at 0.01 µM ([2]; read-out: % Inhibition Androgen Receptor E^−8): 7% |
| CC1CCC2(CCC3C4CCc5cc(O)c([N+](=O)[O-])cc5C4CCC32C)OC1=O [EM-1126, 2-Nitro-1,3,5(10)-estratrien-3-ol-17(R)-spiro-2′-(5′-methyl-6′-oxo)tetrahydropyran] | 14% | 5% | – | – | % Inhibition Androgen Receptor E^−6 ([2]; Table 4′, E^−6): 10%; % Inhibition Androgen Receptor E^−8 ([2]; Table 4′, E^−8): 2% |
| CC1(C)CC[C@@]2(CC[C@H]3[C@@H]4CCc5c(cc(Br)c(O)c5Br)[C@H]4CC[C@@]32C)OC1=O [EM-1382-CS] | 0% | 2% | – | – | % Inhibition Androgen Receptor E^−6 ([2]; Table 4′, E^−6): 0%; % Inhibition Androgen Receptor E^−8 ([2]; Table 4′, E^−8): 0% |
| CC1(C)CCC2(CCC3C4CCc5cc(OCCN6CCCCC6)ccc5C4CCC32C)OC1=O [EM-1390-CS, 3-(N-piperidyl-ethyl)-1,3,5(10)-estratrien-17(R)-spiro-2′-(5′,5′-dimethyl-6′-oxo)-tetrahydropyran] | 2% | 0% | 0% | 0% | – |
